The text below walks through data of patent publication US11364305B2, “Nanoparticle conjugates and uses thereof” (UNIVERSITY OF MIAMI, priority 2015, dated 2022).

[ ]: non-standard residue; d: D form. Abu = CC[C@H](N)C(=O)O; Ahx = NCCCCCC(=O)O

One data set has as its system MDSC and macrophages. Kind of data set: In vivo specificity of 4PD in CT26 bearing mice (multicolor flow cytometry of tumor, spleen, liver). Also noted: species or system mouse. The following applies: for Alexa555-shRNA accumulation in cell subsets: with cardiolipin. On the procedure:
Mice bearing the CT26 colon carcinoma (0.7 cm in diameter) were injected with Alexa555-siRNA loaded onto 4PD (black bar) or, as control, onto G5 PAMAM dendrimer functionalized with a random peptide. Two hours later, mice were sacrificed. Single cell suspensions from the spleen, the tumor and the liver were labeled with antibodies specific for Gr1, CD11b, F4/80, CD11c, CD3, CD4, and CD8 to identify granulocytic MDSC (gMDSC), monocytic MDSC (mMDSC), macrophages, dendritic cells, and helper and cytotoxic T cell. Fluorescence in the Alexa555 channel in each population was evaluated by FACSas a read out of 4PD mediated transfection.
In order to evaluate 4PD specificity in vivo, Balb/c mice bearing the CT26 colon carcinoma were injected intravenously with 20 ug of Alexa555-shRNA loaded into the 4PD platform with cardiolipin. Alexa 555-shRNA loaded dendrimer coupled with control peptide (a mixture of random peptides) were used as control. Cardiolipin was added to the complexes as described above (FIG. 3). Two hours after 4PD/Alexa555-shRNA systemic injection, mice were sacrificed and single cell suspension from the tumor, the spleen, and the liver was analyzed by multicolor flow cytometry (FIG. 10). In particular, cells were stained with CD11b, Gr1, CD11c and F4/80 specific antibodies to identify granulocytic− (g−) MDSCs (CD11bGr1high), monocytic− (m−) MDSCs (CD11b+GR1−), CD11b+Gr-1 negative myeloid cells, F4/80+macrophages, and CD11chigh DC. Additionally, cells were stained with antibodies specific for CD3, CD8, and CD4 to recognize T cell subsets.

Data set [1] concerns Bone marrow cells from C57Bl/6 mice. Kind of data set: Transfection of early hematopoietic progenitor cells from bone marrow (flow cytometry). The data set is classed as cell-based, mouse. The method, then: FIG. 24B provides histograms that how the binding of 4PD (open histogram) over the control (filled histogram). The dot blot on the right summarize the binding from ten independent assays.
Bone marrow cells from C57Bl/6 mice were incubated for 10 minutes with 4PD loaded with Alexafluor 555 washed, counterstained with anti-lineage cocktail, anti-CD45, anti-Sca1, anti ckit, anti-CD34, anti-CD16/CD32, anti-CD150 and anti-CD48 antibodies, and analyzed by flow cytometry.
Importantly, the viability of the cells after transfection was higher than 95%.

Another data set has as its system CD11b+MDSC. Kind of data set: Alexa555-shRNA transfection of CD11b+ MDSC from CT26 tumor bearing mice (FACS, fluorescence microscopy). The data set is classed as cell-based, mouse. The following applies: 15 minutes at 37° C., then 2 hours; FACS and fluorescence microscopy. On the procedure:
MDSC isolated from CT26 tumor bearing mice were transfected with: 1) Alexa555-siRNA alone (gray filled line in FIGS. 5A and 5B), 2) Alexa555-siRNA Dendrimer (black line, bottom panel, FIG. 5B) or 3) Alexa555-siRNA IL4Rα targeting dendrimer (black line, top panel, FIG. 5A). 45 minutes later cells were analyzed by immune-fluorescence microscopy (FIG. 5C) and by FACS (FIG. 5B) after gating on the alive (DAPI negative) cells.
(§1) Next, the ability of 4PD to bind to the native IL4Rα receptor expressed on a cell membrane was evaluated. To this aim, the capacity of 4PD to recognize CD11b+myeloid cells isolated from tumor bearing mice was evaluated. Briefly, CD11b+MDSC were magnetically isolated from the spleen of Balb/c mice challenged 2 weeks before with the CT26 colon carcinoma. Purified cells were incubated at 37° C. for 15 minutes with Alexa555-shRNA loaded onto 4PD or dendrimers conjugated with scramble peptide as negative control. After the incubation, cells were washed and incubated for an additional 2 hours at 37° C. in CTL media. Cells were harvested and analyzed by FACS (FIG. 5B) or by fluorescence microscopy (FIG. 5C) to determine Alexa-555-shRNA transfection. […] Similarly (FIG. 6B), Alexa555 fluorescence can be found only on CD33+IL4Rα+ MDSCs (black histogram) but not in other subsets as the IL4Rα-CD33+ myeloid cells (purple) or the non-myeloid (CD33-IL4Rα−) cells.

The subject of another data set is human MDSCs. Kind of data set: Binding of 4PD/Alexa555-shRNA complexes to PBMCs from HNSCC patients by FACS. The data set is classed as cell-based. The following applies: 30 minutes at 4° C. The method, then:
Transfection was evaluated by FACS. In FIG. 6A, the red dot represent the cells transfected with the 4PD nanoparticles (i.e., CD33+IL4Rα+CD11b+CD14+HLADRlow monocytes/MDSC). FIG. 6B depicts the Alexa555 fluorescence in the indicated gates. In FIG. 6C, apparent Kd was calculated by incubating a fixed number of PBMCs with the indicated concentration of Alexa555shRNA/4PD complexes for 10 minutes at 4° C. and by evaluating the MFI in the relevant channel by FACS.
as §1, with “After the incubation, cells were washed and incubated for an additional 2 hours at 37° C. in CTL media.” left out, “cells. […]” for “cells.”

Consider “4PD: G5 PAMAM dendrimer conjugated by maleidoamide chemistry to the IL4Rα targeting peptide of SEQ ID NO: 1 (Ac-LQRLFRAFR[Abu]LD[Ahx]C-NH2; also: Cys14 joined by maleimidobenzoyl thioether to G5 PAMAM dendrimer)”, for which the Alexa555-shRNA binding entry in the data set on MDSC and macrophages (non-myeloid leukocytes subsets, 2 hours after i.v. injection) is listed as “Only non-specific level of binding was observed”. In addition, the “Alexa555-shRNA accumulation in cell subsets” value is “accumulates mostly in F4/80+ tumor educated macrophages, and CD11b+GR1− myeloid cells” in the data set with MDSC and macrophages (spleen and liver, 2 hours after i.v. injection); “accumulates mostly in the tumor associated gMDSCs, mMDSC, macrophages and CD11b+Gr1− myeloid cells” with MDSC and macrophages (tumor, 2 hours after i.v. injection of 20 ug Alexa555-shRNA). Moreover, the transfection entry in data set [1] (HSC, HPC1, HPC2, MPP, CMP, GMP, 10 minutes incubation) was “able to efficiently transfect”; in data set [1] (megakariocytes-erythrocyte precursors) it was “at lower level”. In addition, the “viability of the cells after transfection” value in data set [1] (bone marrow cells) is “higher than 95%”. Moreover, in the data set on CD11b+MDSC, the Alexa-555-shRNA transfection result is reported as “can promote the internalization of Alexa-555 in the cells”. In addition, the “cells bound by 4PD among PBMCs” value in the data set with human MDSCs is listed as “binds preferentially to CD11b+CD14+CD33+IL4Rα+HLADRdim cells”.
